These are literature values, as cited in patent publication US10926237B2, “Soluble corrosion resistant sol-gel” (THE BOEING COMPANY, priority 2018, dated 2021).

Structures are written as SMILES.

For `Sc1nnc(S)s1` [2,5-Dimercapto-1,3,4-thiadiazole, 2,5-dimercapto-1,3,4-thiadiazole], the “water solubility (in words)” value was “water soluble”.
